17 compounds from patent US11396497B2, “Proteasome inhibitors” (New Mexico Tech University Research Park Corporation, priority 2018, dated 2022) can be followed below.

Data set [1] deals with T1, trypsin-like activity of the 26S proteasome (Homo sapiens, UniProt Q99436).
T1 construct: endogenous in cells; host or cells: Jurkat (ATCC TIB-152, E6-1 clone) cell lysate
T1 sequence (Q99436 44-277): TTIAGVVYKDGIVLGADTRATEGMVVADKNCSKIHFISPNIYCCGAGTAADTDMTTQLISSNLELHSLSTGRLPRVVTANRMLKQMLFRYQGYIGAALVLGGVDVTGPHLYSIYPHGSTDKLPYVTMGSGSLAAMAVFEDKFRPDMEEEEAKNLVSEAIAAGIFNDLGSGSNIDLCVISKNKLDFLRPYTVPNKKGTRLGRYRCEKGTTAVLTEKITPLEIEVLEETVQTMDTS
The data set is described as follows: Proteasome assay, trypsin-like (T-L) activity, SUC-RLR-AMC, Jurkat cell lysate. It counts as biochemical. The protocol:
(§1) The lysate was stored at −80° C. until the sample was used for the proteasome assay.
(§2) The compounds were diluted with lysis buffer; 10 μL of the compound-containing solution was added to the test wells at ten times the final concentration. […] The results are reported as the average of at least 3 technical replicates of IC50 values for proteasome inhibition.

In data set [2] the test system is RPMI 8226 cells. Description: MTT assay cytotoxicity RPMI 8226. The conditions noted are these: read-out: Cytotoxicity RPMI 8226 IC50. Background: Tetrazolium assays rely on reduction of a dye to a coloured formazan, in cell work by metabolically active cells.
Method: (§3) The cells were incubated at 37° C. in a humidified atmosphere with 5% CO2.
(§4) 100 μL of cells were added to each well of a 96 well microtiter plate at a concentration of 4×10^4 cells/mL and incubated overnight to allow proper adhesion. (RPMI 8226 cells were plated at 4×10^5 cells/mL). The cells were treated with the panel of test compounds at a series of concentrations, along with vehicle control DMSO and untreated cells as controls. After 48 h incubation, 20 μL of MTT reagent (3-(4,5-dimethylthiazol-2-yl)-2,5-diphenyltetrazolium bromide) in PBS (5 mg/mL) was added to each well of the plates. The plate was incubated for 2 h at 37° C. For adherent cell lines, the media was removed from each well of the plate and the resulting formazan crystals dissolved in 100 μL of DMSO. For RPMI 8226 cells, 200 ul of DMF/SDS mix (50% DMF. 10% w/v SDS pH<4) was used to solubilize the formazan crystals. Optical density (OD) at 490 nm was measured using a microplate reader. Cells treated with 1 μM phenyl arsine oxide (PAO) served as a positive cell-killing control. Technical replicates of these assays were performed in biological quadruplicate, and the three best values were used for analysis in order to eliminate outliers. Data presented are the average IC50 value calculated from at least 3 technical replicates with the corresponding standard deviation.
Data set [3] concerns MCF7 cells. The data set is described as follows: MTT assay cytotoxicity MCF7. The conditions noted are these: read-out: Cytotoxicity MCF7 IC50.
Method: as §3, §4
Data set [4] concerns MDA-MB-231 cells. The data set is described as follows: MTT assay cytotoxicity MDA-MB-231. The settings on record: read-out: Cytotoxicity MDA-MB-231 IC50.
Method: as §3, §4
In data set [5] the target is T2, chymotrypsin-like activity of the 26S proteasome (Homo sapiens, UniProt P28074).
T2 construct: endogenous in cells; host or cells: Jurkat (ATCC TIB-152, E6-1 clone) cell lysate
T2 sequence (P28074 60-263): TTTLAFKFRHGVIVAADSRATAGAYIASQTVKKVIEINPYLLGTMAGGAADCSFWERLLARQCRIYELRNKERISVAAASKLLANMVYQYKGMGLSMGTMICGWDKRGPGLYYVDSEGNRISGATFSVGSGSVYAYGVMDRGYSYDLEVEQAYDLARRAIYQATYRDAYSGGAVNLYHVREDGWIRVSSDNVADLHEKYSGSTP
The data set is described as follows: Proteasome assay, chymotrypsin-like (ChT-L) activity, Suc-LLVY-AMC, Jurkat cell lysate. It is filed as biochemical. The conditions noted are these: for IC50: ± S.D., read-out: Proteasome Inhibition ChT-like IC50. The protocol: as §1, §2

The test system of data set [6] is MDA-MB-231 cells.
Method: as §3, §4
In data set [7] the test system is MCF7 cells.
Method: as §3, §4
The test system of data set [8] is RPMI 8226 cells.
Method: as §3, §4
The mark [9] stands for this setting: Table 2, P1 analogues, ± S.D., read-out: Proteasome Inhibition T-L-like IC50.
[10] abbreviates: Table 3, P2/P3 analogues, ± S.D., read-out: Proteasome Inhibition T-L-like IC50.

Where two headings read alike, the source gives them in different places.

Consider `CC(C)[C@H](NC(=O)[C@@H]1OC(=O)[C@H]1C1CCC1)C(=O)N[C@H](C(=O)OCc1ccccc1)C(C)C` [Compound 9b, Benzyl ((2R,3S)-3-cyclobutyl-4-oxooxetane-2-carbonyl)-L-valyl-L-valinate], for which the IC50 (as a rule, the midpoint of a concentration-inhibition curve) in data set [1] (setting [9]) is 3.73 ± 0.775 µM; in data set [2] (Homo sapiens, RPMI-8226, 48 h), 30400 ± 4750 nM; in data set [3] (Homo sapiens, MCF7, 48 h) it was > 50000 nM; in data set [4] (Homo sapiens, MDA-MB-231, 48 h), ~50000 nM; in data set [5] (Table 2, P1 analogues) it was 26.5 ± 7.7 nM.
The corresponding values for `CC(C)C[C@@H]1C(=O)O[C@H]1C(=O)N[C@H](C(=O)N[C@H](C(=O)OCc1ccccc1)C(C)C)C(C)C` [Compound 9d, Benzyl ((2R,3S)-3-isobutyl-4-oxooxetane-2-carbonyl)-L-valyl-L-valinate] are 6.67 ± 3.44 µM, 19900 ± 8060 nM, ~40000 nM, 25300 ± 2940 nM and 16 ± 4.7 nM.
Regarding `CC[C@H](C)[C@@H]1C(=O)O[C@H]1C(=O)N[C@@H](COCc1ccccc1)C(=O)N[C@H](C(=O)OCc1ccccc1)C(C)C` [Compound 10j, BenzylO-benzyl-N-((2R,3S)-3-((S)-sec-butyl)-4-oxooxetane-2-carbonyl)-L-seryl-L-valinate], the IC50 in data set [1] (setting [10]) stood at 0.792 ± 0.24 µM; in data set [2] (Table 3, MTT, 48 h), 1430 ± 526 nM; in data set [3] (Table 3, MTT, 48 h), 2760 ± 791 nM; in data set [4] (Table 3, MTT, 48 h), 2210 ± 764 nM; in data set [5] (Table 3, P2/P3 analogues), 6.9 ± 0.2 nM.
With `CC(C)[C@H](NC(=O)[C@@H]1OC(=O)[C@H]1C1CCCC1)C(=O)N[C@H](C(=O)OCc1ccccc1)C(C)C` [Compound 9c, Benzyl ((2R,3S)-3-cyclopentyl-4-oxooxetane-2-carbonyl)-L-valyl-L-valinate], the IC50 in data set [1] (setting [9]) is 10.2 ± 3.39 µM; in data set [2] (Homo sapiens, RPMI-8226, 48 h), 1980 ± 1000 nM; in data set [3] (Homo sapiens, MCF7, 48 h), ~25000 nM; in data set [4] (Homo sapiens, MDA-MB-231, 48 h), 20600 ± 3940 nM; in data set [5] (Table 2, P1 analogues) it was 13.9 ± 0.6 nM. The “subunit selectivity, ChT-L over T-L (in words)” value (“subunit selectivity, ChT-L” for short) in data set [5] is given as “greatest selectivity”.
In the case of `CC[C@H](C)[C@@H]1C(=O)O[C@H]1C(=O)N[C@@H](Cc1ccccc1)C(=O)N[C@H](C(=O)OCc1ccccc1)C(C)C` [Compound 10b, Benzyl((2R,3S)-3-((S)-sec-butyl)-4-oxooxetane-2-carbonyl)-L-phenylalanyl-L-valinate], the IC50 was 3.82 ± 0.812 µM in data set [1] (setting [10]); 2330 ± 610 nM in data set [2] (Table 3, MTT, 48 h); ~5000 nM in data set [3] (Table 3, MTT, 48 h); 3440 ± 722 nM in data set [4] (Table 3, MTT, 48 h); 7.7 ± 1.7 nM in data set [5] (Table 3, P2/P3 analogues). The “subunit selectivity, ChT-L” value in data set [5] is “enhanced subunit selectivity”.
Consider `CC[C@H](C)[C@@H]1C(=O)O[C@H]1C(=O)N[C@H](C(=O)N[C@H](C(=O)OCc1ccccc1)C(C)(C)C)C(C)(C)C` [Compound 10g, Benzyl(S)-2-((S)-2-((2R,3S)-3-((S)-sec-butyl)-4-oxooxetane-2-carboxamido)-3,3-dimethylbutanamido)-3,3-dimethylbutanoate], for which the IC50 was determined as 4.53 ± 2.18 µM in data set [1] (setting [10]); 866 ± 532 nM in data set [2] (Homo sapiens, RPMI-8226, 48 h); 1690 ± 102 nM in data set [3] (Homo sapiens, MCF7, 48 h); 953 ± 484 nM in data set [4] (Homo sapiens, MDA-MB-231, 48 h); 21.4 ± 8.8 nM in data set [5] (Table 3, P2/P3 analogues).
On to `CC[C@H](C)[C@@H]1C(=O)O[C@H]1C(=O)N[C@H](C(=O)N[C@H](C(=O)OCc1ccccc1)C(C)C)C(C)(C)C` [Compound 10e, Benzyl((S)-2-((2R,3S)-3-((S)-sec-butyl)-4-oxooxetane-2-carboxamido)-3,3-dimethylbutanoyl)-L-valinate], for which the IC50 in data set [6] was 1030 ± 644 nM; in data set [7] it was 2140 ± 122 nM; in data set [1] (setting [10]), 5.18 ± 1.49 µM; in data set [8], 1050 ± 750 nM; in data set [5] (Table 3, P2/P3 analogues), 22.9 ± 2.5 nM. Moreover, the “subunit selectivity, ChT-L” value in data set [5] is on record as “enhanced subunit selectivity”.
Regarding `C=CCCOC(=O)[C@@H](NC(=O)[C@@H](NC(=O)[C@@H]1OC(=O)[C@H]1[C@@H](C)CC)C(C)C)C(C)C` [Compound 11g, But-3-en-1-yl((2R,3S)-3-((S)-sec-butyl)-4-oxooxetane-2-carbonyl)-L-valyl-L-valinate], the IC50 in data set [6] was 361 ± 43 nM; in data set [7], 752 ± 384 nM; in data set [8], 264 ± 48 nM; in data set [5] (Table 4, P4 analogues) it was 8.7 ± 2 nM.
On the same counts, the results for `CC[C@H](C)[C@@H]1C(=O)O[C@H]1C(=O)N[C@H](C(=O)N[C@H](C(=O)OCC(C)C)C(C)C)C(C)C` [Compound 11d, Isobutyl((2R,3S)-3-((S)-sec-butyl)-4-oxooxetane-2-carbonyl)-L-valyl-L-valinate] are 355 ± 123 nM, 634 ± 72 nM, 99 ± 7 nM and 9.4 ± 3.7 nM.
Regarding `CC[C@H](C)[C@@H]1C(=O)O[C@H]1C(=O)N[C@H](C(=O)N[C@H](C(=O)OC)C(C)C)C(C)C` [Compound 11h, Methyl ((2R,3S)-3-((S)-sec-butyl)-4-oxooxetane-2-carbonyl)-L-valyl-L-valinate], the IC50 in data set [2] (Homo sapiens, RPMI-8226, 48 h) stood at 293 ± 71 nM; in data set [3] (Homo sapiens, MCF7, 48 h), 506 ± 207 nM; in data set [4] (Homo sapiens, MDA-MB-231, 48 h), 316 ± 44 nM; in data set [5] (Table 4, P4 analogues), 24.3 ± 8.2 nM.
Regarding `CC[C@H](C)[C@@H]1C(=O)O[C@H]1C(=O)N[C@H](C(=O)N[C@H](C(=O)OCc1ccccc1)C(C)(C)C)C(C)C` [Compound 10f, Benzyl(S)-2-((S)-2-((2R,3S)-3-((S)-sec-butyl)-4-oxooxetane-2-carboxamido)-3-methylbutanamido)-3,3-dimethylbutanoate], the IC50 in data set [1] amounted to 3.71 ± 0.719 µM; in data set [2] (Homo sapiens, RPMI-8226, 48 h) it was 1390 ± 131 nM; in data set [3] (Homo sapiens, MCF7, 48 h), 1120 ± 332 nM; in data set [4] (Homo sapiens, MDA-MB-231, 48 h) it was 1110 ± 582 nM; in data set [5] (Table 3, P2/P3 analogues) it was 15.9 ± 1 nM.
For `CC[C@H](C)[C@@H]1C(=O)O[C@H]1C(=O)N[C@@H](Cc1ccccc1)C(=O)N[C@@H](Cc1ccccc1)C(=O)OCc1ccccc1` [Compound 10d, Benzyl((2R,3S)-3-((S)-sec-butyl)-4-oxooxetane-2-carbonyl)-L-phenylalanyl-L-phenylalaninate], the IC50 was 3.05 ± 1.27 µM in data set [1] (setting [10]); 1280 ± 527 nM in data set [2] (Table 3, MTT, 48 h); 3620 ± 2500 nM in data set [3] (Table 3, MTT, 48 h); 4660 ± 1540 nM in data set [4] (Table 3, MTT, 48 h); 12.6 ± 5.7 nM in data set [5] (Table 3, P2/P3 analogues).
In the case of `CC[C@H](C)[C@@H]1C(=O)O[C@H]1C(=O)N[C@H](C(=O)N[C@H](C(=O)OCc1ccc(OC)cc1)C(C)C)C(C)C` [Compound 11f, 4-methoxybenzyl((2R,3S)-3-((S)-sec-butyl)-4-oxooxetane-2-carbonyl)-L-valyl-L-valinate], the IC50 came to 117 ± 47 nM in data set [2] (Table 4, MTT, 48 h); 574 ± 96 nM in data set [3] (Table 4, MTT, 48 h); 265 ± 114 nM in data set [4] (Table 4, MTT, 48 h); 9 ± 4.2 nM in data set [5] (Table 4, P4 analogues).
On to `CC[C@H](C)[C@@H]1C(=O)O[C@H]1C(=O)N[C@@H](CC(C)C)C(=O)N[C@H](C(=O)OCc1ccccc1)C(C)C` [Compound 10h, Benzyl((2R,3S)-3-((S)-sec-butyl)-4-oxooxetane-2-carbonyl)-L-leucyl-L-valinate], for which the IC50 amounted to 2080 ± 651 nM in data set [6]; 2350 ± 458 nM in data set [7]; 2.56 ± 0.39 µM in data set [1] (setting [10]); 1780 ± 1020 nM in data set [8]; 4.7 ± 1.8 nM in data set [5] (Table 3, P2/P3 analogues).
Consider `CC[C@H](C)[C@@H]1C(=O)O[C@H]1C(=O)N[C@H](C(=O)N[C@H](C(=O)OCc1ccc(Cl)cc1)C(C)C)C(C)C` [Compound 11b, 4-chlorobenzyl((2R,3S)-3-((S)-sec-butyl)-4-oxooxetane-2-carbonyl)-L-valyl-L-valinate], for which the IC50 in data set [6] amounted to 307 ± 166 nM; in data set [7] it was 954 ± 351 nM; in data set [8], 88 ± 12 nM; in data set [5] (Table 4, P4 analogues), 10.2 ± 7 nM.
For the compound `CC[C@H](C)[C@@H]1C(=O)O[C@H]1C(=O)N[C@H](C(=O)N[C@@H](Cc1ccccc1)C(=O)OCc1ccccc1)C(C)C` [Compound 10c, Benzyl((2R,3S)-3-((S)-sec-butyl)-4-oxooxetane-2-carbonyl)-L-valyl-phenylalaninate], the IC50 in data set [1] (setting [10]) is 1.66 ± 0.204 µM; in data set [2] (Table 3, MTT, 48 h) it was 1040 ± 45 nM; in data set [3] (Table 3, MTT, 48 h), 2300 ± 142 nM; in data set [4] (Table 3, MTT, 48 h) it was 2570 ± 705 nM; in data set [5] (Table 3, P2/P3 analogues), 5.4 ± 2.9 nM.
As to `CC[C@H](C)[C@@H]1C(=O)O[C@H]1C(=O)N[C@H](C(=O)N[C@H](C(=O)OCC1CCCCC1)C(C)C)C(C)C` [Compound 11c, Cyclohexylmethyl((2R,3S)-3-((S)-sec-butyl)-4-oxooxetane-2-carbonyl)-L-valyl-L-valinate], the IC50 in data set [6] was determined as 1920 ± 917 nM; in data set [7] it was 4570 ± 1650 nM; in data set [8], 461 ± 194 nM; in data set [5] (Table 4, P4 analogues), 13 ± 5.2 nM.
